Converted amounts (≈) assume the structure as drawn.
Experiments:
human NK1 receptors = biological target: T1, human NK1 receptors (Homo sapiens, UniProt P25103); assay: NK1 receptor binding, [3H]substance P displacement; conditions: human NK1 receptor in CHO cells, [3H]substance P 0.6 nM; read-out: affinity to the NK-1 receptor, given as pKi (converted)
T1 construct: expressed in transfected cells; host or cells: CHO cells infected using the Semliki virus expression system; membrane suspension used
Protocol: The compounds were investigated in accordance with the tests given hereinafter. The affinity of test compounds for the NK1 receptor was evaluated at human NK1 receptors in CHO cells infected with the human NK1 receptor (using the Semliki virus expression system) and radiolabelled with [^3H]substance P (final concentration 0.6 nM). Binding assays were performed in HEPES buffer (50 mM, pH 7.4) containing BSA (0.04%) leupeptin (8 μg/ml), MnCl2 (3 mM) and phosphoramidon (2 μM). Binding assays consisted of 250 μl of membrane suspension (1.25×10^5 cells/assay tube), […] of buffer of displacing agent and 125 μl of [^3H]substance P. Displacement curves were determined with at least seven concentrations of the compound. The assay tubes were incubated for 60 min at room temperature after which time the tube contents were rapidly filtered under vacuum through GF/C filters presoaked for 60 min with PEI (0.3%) with 2×2 ml washes of HEPES buffer (50 mM, pH 7.4). The radioactivity retained on the filters was measured by scintillation counting. All assays were performed in triplicate in at least 2 separate experiments.
The affinity to the NK-1 receptor, given as pKi is described in the table below: […]

[1] = Metabolic stability in vitro in microsomes; type: in vitro ADME; conditions: in comparison with 2-(3,5-bis-trifluoromethyl-phenyl)-N-methyl-N-[6-(4-methyl-piperazin-1-yl)-4-o-tolyl-pyridin-3-yl]-isobutyramide
[2] = PAMPA PSR4p permeability assay; type: in vitro ADME; conditions: for Acceptor (sample distribution) / Donor (sample distribution) / Membrane (sample distribution) / PE (permeation constant) / PE class: pH 6.5, DMSO stock solution
Protocol: The permeability has been searched by the PAMPA PSR4p assay, which is based on 96 well microplates. The permeability is measured using a “sandwich” construction. A filterplate is coated with phospholipids (membrane) and placed into a donor plate containing a drug/buffer solution. Finally the filterplate is filled with buffer solution (acceptor). The donor concentration is measured at t-start (reference) and compared with the donor and acceptor concentration after a certain time t-end.
The following setup is used for the PAMPA PSR4p assay: • Donor: 0.05 M MOPSO buffer at ph 6.5+0.5% (w/v) Glyco cholic acid • Membrane: 10% (w/v) Egg lecithin+0.5% (w/v) cholesterol in dodecane • Acceptor: 0.05 MOPSO buffer at pH 6.5
The liquid handling is done with a TECAN RSP150 pipetting robot. The drug analysis is based on UV spectroscopy. All samples are transferred into 96 well UV plates. A SpectralMax 190 UV plate reader is used to collect the UV spectras.
The pipetting steps can be divided into four parts: 1. Dilution of stock solutions and filtration, 2. Preparation of reference and PAMPA PSR4p sandwich, 3. Transfer of acceptor solutions into UV plate, 4. Transfer of donor solutions into UV plate. The PAMPA PSR4p assay contains information about the sample precipitation in the donor buffer UV spectras of the sample, read at the start of the assay (t-start: reference) and at the end (t-end: donor, acceptor) allow the determination of a sample distribution in donor, membrane and acceptor. Because of the known permeation time (t-end, t-start) a permeation constant can be retrieved.

Equilibrium solubility = type: physicochemical; conditions: for solubility at 24 h: 21 °C, aqueous buffer, thermodynamic from solid
Protocol: Method Description Equilibrium Solubility
[…] A known amount of drug, generally 1–2 mg, was added to 250 μl of buffer (glass tubes), and the resulting suspension was stirred for 2 h (21° C.), after 5 minutes of sonification. The pH of the solution was checked and corrected if necessary (in case of pH correction, the solution was once more shaken and equilibrated), and after 24 h the suspension was filtered through a 0.65-μm filter. The filtered solution was then assayed by HPLC to determine the drug concentration. In cases where the drug had completely dissolved in the buffer, the value for equilibrium solubility was assumed to be higher than the value determined by HPLC and was reported as such. Stock solutions (˜1 mg/ml) in DMSO were used in the preparation of a calibration curve in the related buffer using HPLC analytics.

[3] = buffer 0.05 M Phosphate, pH 6.5 (EP 1 035 115) / pH 6.7 (Compound I-2)

T1 sequence (P25103 whole entry): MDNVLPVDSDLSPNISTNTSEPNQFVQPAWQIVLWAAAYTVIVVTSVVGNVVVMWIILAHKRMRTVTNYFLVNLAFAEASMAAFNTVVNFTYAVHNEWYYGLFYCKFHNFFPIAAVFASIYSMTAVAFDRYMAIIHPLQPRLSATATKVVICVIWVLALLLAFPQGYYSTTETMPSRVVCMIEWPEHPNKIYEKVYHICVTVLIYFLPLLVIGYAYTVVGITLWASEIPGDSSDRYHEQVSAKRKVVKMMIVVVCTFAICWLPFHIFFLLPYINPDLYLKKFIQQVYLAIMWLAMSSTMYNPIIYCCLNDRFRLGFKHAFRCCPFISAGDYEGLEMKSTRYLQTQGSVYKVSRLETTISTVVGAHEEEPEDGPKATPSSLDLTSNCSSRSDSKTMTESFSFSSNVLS

## Cc1ccccc1-c1cc(N2CC[N+](C)([O-])CC2)ncc1N(C)C(=O)C(C)(C)c1cc(C(F)(F)F)cc(C(F)(F)F)c1 [Compound I-1, 2-(3,5-Bis-trifluoromethyl-phenyl)-N-methyl-N-[6-(4-methyl-4-oxy-piperazin-1-yl)-4-o-tolyl-pyridin-3-yl]-isobutyramide]
Human NK1 receptors
  Ki: 1 nM
[1]
  metabolic stability in vitro in microsomes: higher metabolic stability

## Cc1ccccc1-c1cc(N2CCN(C)CC2)ncc1N(C)C(=O)C(C)(C)c1cc(C(F)(F)F)cc(C(F)(F)F)c1 [EP 1 035 115, 2-(3,5-bis-trifluoromethyl-phenyl)-N-methyl-N-[6-(4-methyl-piperazin-1-yl)-4-o-tolyl-pyridin-3-yl]-isobutyramide, reference compound]
[2]
  Acceptor (sample distribution): 2%
  Donor (sample distribution): 50%
  Membrane (sample distribution): 49%
  PE (permeation constant): 0.56 cm/s × 10^−6
  PE class: medium
Equilibrium solubility; [3]
  solubility at 24 h: 1 µg/mL (≈ 1.73 µM)
Equilibrium solubility; buffer 0.15 M Citrate, pH 4.1
  solubility at 24 h: 26 µg/mL (≈ 44.9 µM)

## CN1CCN(c2cc(-c3ccccc3CO)c(N(C)C(=O)C(C)(C)c3cc(C(F)(F)F)cc(C(F)(F)F)c3)cn2)CC1 [Compound I-2, 2-(3,5-Bis-trifluoromethyl-phenyl)-N-[4-(2-hydroxymethyl-phenyl)-6-(4-methyl-piperazin-1-yl)-pyridin-3-yl]-N-methyl-isobutyramide]
[2]
  permeation speed compared with the corresponding compound of EP 1 035 115: three times higher
  Acceptor (sample distribution): 3%
  Donor (sample distribution): 26%
  Membrane (sample distribution): 72%
  PE (permeation constant): 1.81 cm/s × 10^−6
  PE class: high
Human NK1 receptors
  Ki: 0.794 nM
Equilibrium solubility
  solubility, fold higher than the compared compound disclosed in EP 1035 115: 8 fold
Equilibrium solubility; [3]
  solubility at 24 h: 8 µg/mL (≈ 13.5 µM)
Equilibrium solubility; buffer 0.15 M Citrate, pH 4.1
  solubility at 24 h: 200 µg/mL (≈ 336 µM)
